Assay results published in ChEMBL document CHEMBL3727356, “Therapeutic compounds and compositions” (2014).

Assays:
Pyruvate kinase PKLR [1] = molecular target: Pyruvate kinase PKLR (Homo sapiens, UniProt P30613, R510Q); experiment: Activation of PKR R510Q mutant (unknown origin) incubated for 60 mins in presence of ADP, PEP and NADH by Spectraax microplate reader based assay
Pyruvate kinase PKLR [2] = molecular target: T1, Pyruvate kinase PKLR (Homo sapiens, UniProt P30613); experiment: Activation of wild type PKR (unknown origin) incubated for 60 mins in presence of ADP, PEP and NADH by Spectraax microplate reader based assay
Pyruvate kinase PKLR [3] = molecular target: Pyruvate kinase PKLR (Homo sapiens, UniProt P30613, R532W); experiment: Activation of PKR R532W mutant (unknown origin) incubated for 60 mins in presence of ADP, PEP and NADH by Spectraax microplate reader based assay
Pyruvate kinase PKLR [4] = molecular target: T1, Pyruvate kinase PKLR; experiment: Activation of wild type PKR (unknown origin) by cell based assay

Pyruvate kinase PKLR (Homo sapiens, UniProt P30613, R532W), sequence (P30613 whole entry R532W): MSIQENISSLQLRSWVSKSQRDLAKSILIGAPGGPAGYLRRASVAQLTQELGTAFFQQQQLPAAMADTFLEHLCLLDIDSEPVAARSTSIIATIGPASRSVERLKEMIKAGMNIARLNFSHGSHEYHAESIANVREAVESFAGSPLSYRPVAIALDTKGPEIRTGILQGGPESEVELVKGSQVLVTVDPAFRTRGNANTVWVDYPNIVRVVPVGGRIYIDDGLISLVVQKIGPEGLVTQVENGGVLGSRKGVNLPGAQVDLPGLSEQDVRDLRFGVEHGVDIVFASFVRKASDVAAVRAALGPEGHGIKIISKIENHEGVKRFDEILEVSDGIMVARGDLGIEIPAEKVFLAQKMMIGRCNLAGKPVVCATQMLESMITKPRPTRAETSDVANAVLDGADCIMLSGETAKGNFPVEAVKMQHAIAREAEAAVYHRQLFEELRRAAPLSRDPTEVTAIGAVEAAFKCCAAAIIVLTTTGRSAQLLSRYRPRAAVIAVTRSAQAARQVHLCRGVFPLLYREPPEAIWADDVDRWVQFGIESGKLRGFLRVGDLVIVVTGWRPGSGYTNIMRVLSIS
Pyruvate kinase PKLR (Homo sapiens, UniProt P30613, R510Q), sequence (P30613 whole entry R510Q): as the sequence (P30613 whole entry R532W) above, with R510Q, W532R counted along it
T1 sequence (P30613 whole entry): as the sequence (P30613 whole entry R532W) above, with W532R counted along it

| Structure (SMILES) | AC50 (Pyruvate kinase PKLR [1]) [nM] | AC50 (Pyruvate kinase PKLR [2]) [nM] | AC50 (Pyruvate kinase PKLR [3]) [nM] | AC50 (Pyruvate kinase PKLR [4]) [nM] |
| --- | --- | --- | --- | --- |
| COc1cccnc1C1(O)CCN(C(=O)c2ccc(NS(=O)(=O)c3cccc4cccnc34)cc2)CC1 | > 10000 | – | – | – |
| CN1CCC(CC2(O)CCN(C(=O)c3ccc(NS(=O)(=O)c4cccc5scnc45)cc3)CC2)C1=O (stereo unspecified) | > 10000 | – | – | – |
| O=C1NCCC1CC1(O)CCN(C(=O)c2ccc(NS(=O)(=O)c3cccc4scnc34)cc2)CC1 (stereo unspecified) | > 10000 | – | – | – |
| O=C(c1ccc(NS(=O)(=O)c2cccc3cccnc23)c(F)c1F)N1CCC(O)(c2ccccc2)CC1 | > 10000 | – | – | – |
| O=C(c1ccc(NS(=O)(=O)c2cccc3scnc23)cc1)N1CCC(O)(c2cn[nH]c2)CC1 | > 10000 | – | – | – |
| O=C1NCCC1CC1(O)CCN(C(=O)c2ccc(NS(=O)(=O)c3cccc4nccnc34)cc2)CC1 (stereo unspecified) | > 10000 | – | – | – |
| O=C(c1ccc(NS(=O)(=O)c2cccc3c(O)ncnc23)cc1)N1CCC(O)(/C=C/CC(F)(F)F)CC1 | < 100 | < 100 | – | – |
| CS(=O)(=O)CCC1(O)CCN(C(=O)c2ccc(NS(=O)(=O)c3cccc4nccnc34)cc2)CC1 | > 10000 | – | – | – |
| CC1(O)CCC(C2(O)CCN(C(=O)c3ccc(NS(=O)(=O)c4cccc5nccnc45)cc3)CC2)CC1 (stereo unspecified) | ≤ 1000 | ≤ 1000 | ≤ 1000 | – |
| O=C(c1ccc(NS(=O)(=O)c2c(F)ccc3ncsc23)cc1)N1CCC(O)(c2ccccc2Cl)CC1 | > 10000 | – | – | – |
| O=C(c1ccc(NS(=O)(=O)c2cccc3cccnc23)cc1)N1CCC(O)(c2ccccc2OC(F)(F)F)CC1 | < 100 | < 100 | < 100 | – |
| Nc1nc2cc(S(=O)(=O)Nc3ccc(C(=O)N4CCC(O)(c5ccccc5Cl)CC4)cc3)c(F)cc2s1 | > 10000 | – | > 10000 | – |
| CC(C)CC1(OP(=O)(O)O)CCN(C(=O)c2ccc(NS(=O)(=O)c3cccc4nccnc34)cc2)CC1 | > 10000 | – | – | – |
| CC(C)CC1(O)CCN(C(=O)c2ccc(NS(=O)(=O)c3cccn4ccnc34)cc2)CC1 | > 10000 | – | – | – |
| CC1(O)CCN(C(=O)c2ccc(NS(=O)(=O)c3cccc4cccnc34)cc2)CC1 | > 10000 | – | – | – |
| CC1(O)CCC(C2(O)CCN(C(=O)c3ccc(NS(=O)(=O)c4cccc5scnc45)cc3)CC2)CC1 (stereo unspecified) | ≥ 1010 | ≤ 1000 | ≥ 1010 | – |
| CC(C)CC1(O)CCN(C(=O)c2ccc(NS(=O)(=O)c3c(F)ccc4ncsc34)cc2)CC1 | > 10000 | – | – | – |
| Nc1nc(CC2(O)CCN(C(=O)c3ccc(NS(=O)(=O)c4cccc5scnc45)cc3)CC2)cs1 | > 10000 | – | – | – |
| Cn1ccc(C2(O)CCN(C(=O)c3ccc(NS(=O)(=O)c4cccc5scnc45)cc3)CC2)n1 | > 10000 | > 10000 | > 10000 | – |
| O=C(c1ccc(NS(=O)(=O)c2cccc3nccnc23)cc1)N1CCC(O)(c2ncc(Cl)s2)CC1 | ≥ 1010 | ≤ 1000 | ≤ 1000 | – |
| O=C(c1ccc(NS(=O)(=O)c2cccc3scnc23)cc1)N1CCC(O)(/C=C/CC(F)(F)F)CC1 | < 100 | < 100 | < 100 | – |
| O=C(c1ccc(NS(=O)(=O)c2cccc3scnc23)cc1)N1CCC(O)(c2ncc(Cl)s2)CC1 | > 10000 | – | – | – |
| O=C(c1ccc(NS(=O)(=O)c2cccc3c2OC(F)(F)O3)cc1)N1CCC(O)(c2ccccc2Cl)CC1 | > 10000 | – | – | – |

| Structure (SMILES) | AC50 (Pyruvate kinase PKLR [1]) [nM] | AC50 (Pyruvate kinase PKLR [2]) [nM] | AC50 (Pyruvate kinase PKLR [3]) [nM] | AC50 (Pyruvate kinase PKLR [4]) [nM] |
| --- | --- | --- | --- | --- |
| CC(C)CC1(O)CCN(C(=O)c2ccc(NS(=O)(=O)c3cccc4ncc(O)nc34)cc2)CC1 | > 10000 | > 10000 | > 10000 | – |
| O=C(c1ccc(NS(=O)(=O)c2cccc(OC(F)(F)F)c2)cc1)N1CCC(O)(Cc2ccccc2)CC1 | > 10000 | – | – | – |
| O=C(c1ccc(NS(=O)(=O)n2ccc3cccnc32)cc1)N1CCC(O)(c2ccccc2Cl)CC1 | > 10000 | > 10000 | > 10000 | – |
| O=C(c1ccc(N[S+]([O-])c2cccc3cccnc23)cc1)N1CCC(O)(c2ccccc2Cl)CC1 (stereo unspecified) | > 10000 | – | – | – |
| CCS(=O)(=O)CC1(O)CCN(C(=O)c2ccc(NS(=O)(=O)c3cccc4scnc34)cc2)CC1 | > 10000 | – | – | – |
| O=C(c1ccc(NS(=O)(=O)c2cccc3cccnc23)cn1)N1CCC(O)(c2ccccc2)CC1 | > 10000 | – | – | – |
| O=C(c1ccc(NS(=O)(=O)c2cccc3ncccc23)cc1)N1CCC(O)(c2ccccc2)CC1 | > 10000 | – | – | – |
| CCn1cc(CC2(O)CCN(C(=O)c3ccc(NS(=O)(=O)c4cccc5scnc45)cc3)CC2)cn1 | > 10000 | – | – | – |
| O=C(c1ccc(NS(=O)(=O)c2ccc(F)c3cccnc23)cc1)N1CCC(O)(Cc2ccccc2F)CC1 | < 100 | < 100 | < 100 | – |
| CC(C)CC1(O)CCN(C(=O)c2ccc(NS(=O)(=O)c3cccc4[nH]cnc34)cc2)CC1 | > 10000 | > 10000 | > 10000 | – |
| O=C(c1ccc(NS(=O)(=O)c2ccccc2Cl)cc1)N1CCC(O)(Cc2ccccc2)CC1 | ≤ 1000 | ≤ 1000 | ≤ 1000 | – |
| CC(CC1(O)CCN(C(=O)c2ccc(NS(=O)(=O)c3cccc4c(O)ncnc34)cc2)CC1)C(F)(F)F (stereo unspecified) | < 100 | < 100 | < 100 | – |
| O=C(c1ccc(NS(=O)(=O)Cc2ccccn2)cc1)N1CCC(O)(c2ccccc2Cl)CC1 | > 10000 | > 10000 | > 10000 | – |
| CCn1cc(CC2(O)CCN(C(=O)c3ccc(NS(=O)(=O)c4cccc5nccnc45)cc3)CC2)cn1 | > 10000 | – | – | – |
| O=C(c1ccc(NS(=O)(=O)c2c[nH]c3cccnc23)cc1)N1CCC(O)(c2ccccc2Cl)CC1 | > 10000 | > 10000 | > 10000 | – |
| CS(=O)(=O)CCC1(O)CCN(C(=O)c2ccc(NS(=O)(=O)c3cccc4scnc34)cc2)CC1 | > 10000 | – | > 10000 | – |
| CNc1nc2c(S(=O)(=O)Nc3ccc(C(=O)N4CCC(O)(c5ccccc5Cl)CC4)cc3)cccc2s1 | < 100 | < 100 | < 100 | – |
| CC1(CC2(O)CCN(C(=O)c3ccc(NS(=O)(=O)c4cccc5scnc45)cc3)CC2)CC1 | < 100 | < 100 | < 100 | – |
| O=C(c1ccc(NS(=O)(=O)c2cccc3cccnc23)nc1)N1CCC(O)(c2ccccc2)CC1 | > 10000 | – | – | – |
| Cn1ccc(CC2(O)CCN(C(=O)c3ccc(NS(=O)(=O)c4cccc5nccnc45)cc3)CC2)n1 | > 10000 | – | – | – |
| CC(F)(F)CCC1(O)CCN(C(=O)c2ccc(NS(=O)(=O)c3cc(F)cc4sc(N)nc34)cc2)CC1 | < 100 | < 100 | < 100 | – |
| COc1nc(C(=O)N2CCC(O)(c3ccccc3)CC2)ccc1NS(=O)(=O)c1cccc2cccnc12 | > 10000 | – | – | – |
| O=C(c1ccc(NS(=O)(=O)c2cccc3c2OCC3)cc1)N1CCC(O)(c2ccccc2Cl)CC1 | > 10000 | ≥ 1010 | ≥ 1010 | – |

| Structure (SMILES) | AC50 (Pyruvate kinase PKLR [1]) [nM] | AC50 (Pyruvate kinase PKLR [2]) [nM] | AC50 (Pyruvate kinase PKLR [3]) [nM] | AC50 (Pyruvate kinase PKLR [4]) [nM] |
| --- | --- | --- | --- | --- |
| O=C(c1ccc(NS(=O)(=O)c2cccc3[nH]cnc23)cc1)N1CCC(O)(c2ccccc2Cl)CC1 | > 10000 | ≥ 1010 | ≥ 1010 | – |
| O=C(c1ccc(NS(=O)(=O)c2cccc3nsnc23)cc1)N1CCC(O)(c2ccccc2)CC1 | > 10000 | – | – | – |
| COc1cc(NS(=O)(=O)c2cccc3cccnc23)ccc1C(=O)N1CCC(O)(Cc2ccccc2)CC1 | < 100 | < 100 | < 100 | – |
| O=C(c1ccc(NS(=O)(=O)c2cccc3snnc23)cc1)N1CCC(O)(c2ccccc2Cl)CC1 | > 10000 | – | – | – |
| CC(C)CC1(O)CCN(C(=O)c2ccc(NS(=O)(=O)c3cccc4c3OCC4)cc2)CC1 | ≥ 1010 | ≥ 1010 | ≥ 1010 | – |
| CC(C)CC1(O)CCN(C(=O)c2ccc(NS(=O)(=O)c3ccc(F)c4cccnc34)cc2)CC1 | – | < 100 | < 100 | < 100 |
| O=C(c1ccc(NS(=O)(=O)c2cccc3cccnc23)cc1)N1CCC(O)(c2cccc(F)c2)CC1 | – | < 100 | < 100 | < 100 |
| O=C(c1ccc(NS(=O)(=O)c2cccc3cccnc23)cc1F)N1CCC(O)(c2ccccc2Cl)CC1 | – | < 100 | < 100 | < 100 |
| CC(C)CC1(O)CCN(C(=O)c2ccc(NS(=O)(=O)Cc3ccccn3)cc2)CC1 | > 10000 | > 10000 | > 10000 | – |
| CCS(=O)(=O)CC1(O)CCN(C(=O)c2ccc(NS(=O)(=O)c3cccc4nccnc34)cc2)CC1 | > 10000 | ≥ 1010 | ≥ 1010 | – |
| O=C(c1ccc(NS(=O)(=O)c2cccc3cccnc23)cc1)N1CCC(C(=O)O)(c2ccccc2)CC1 | > 10000 | > 10000 | > 10000 | – |
| O=C(c1ccc(NS(=O)(=O)c2cccc3cccnc23)cc1)N1CCC(O)(c2ncccc2C(F)(F)F)CC1 | – | < 100 | < 100 | < 100 |
| CC(C)CC1(O)CCN(C(=O)c2ccc(NS(=O)(=O)c3cnc(O)c4cccnc34)cc2)CC1 | > 10000 | – | > 10000 | – |
| O=C(c1ccc(NS(=O)(=O)c2cccc3scnc23)cc1)N1CCC(O)(c2sncc2Cl)CC1 | – | < 100 | < 100 | < 100 |
| O=C(c1ccc(NS(=O)(=O)c2cccc3ccnnc23)cc1)N1CCC(O)(c2ccccc2Cl)CC1 | > 10000 | – | > 10000 | – |
| O=C(c1ccc(NS(=O)(=O)c2cccc3cccnc23)cc1)N1CCC(O)(c2cccc(C(F)(F)F)c2)CC1 | – | < 100 | < 100 | < 100 |
| O=C(c1ccc(NS(=O)(=O)c2ccc(F)c3cccnc23)cc1)N1CCC(O)(c2ccccc2Cl)CC1 | – | < 100 | < 100 | < 100 |
| O=C(c1ccc(NS(=O)(=O)c2cccc3cccnc23)cc1Cl)N1CCC(O)(c2ccccc2Cl)CC1 | – | < 100 | < 100 | < 100 |
| CC(C)CC1(O)CCN(C(=O)c2ccc(NS(=O)(=O)c3ccnc4scnc34)cc2)CC1 | > 10000 | – | > 10000 | – |
| O=C(c1ccc(NS(=O)(=O)c2cccc3cccnc23)cc1)N1CCC(O)(c2ccncc2)CC1 | – | < 100 | < 100 | < 100 |
| CS(=O)(=O)c1ccccc1C1(O)CCN(C(=O)c2ccc(NS(=O)(=O)c3cccc4cccnc34)cc2)CC1 | – | < 100 | < 100 | < 100 |
